pIC50: −log10 of the molar value.

Common to all, as to format: biochemical
The target of assay [1] is T1, LRRK2(G2019S mutation, GST-LRRK2(amino acids 970-2527)) (Homo sapiens (Human), UniProt Q5S007, G2019S). The experiment in a line: LRRK2 Km ATP LanthaScreen Assay. A digest of the protocol: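 TR-FRET: GST-LRRK2 970-2527 G2019S (2.5 nM solution) preincubated 30 min with compound (98 μM top, 1:2.15 dilutions), then 800 nM fluorescein-LRRKtide and 184 μM ATP solution added for 60 min at room temperature in Tris pH 8.5 buffer. Stopped with EDTA and Tb anti-phospho-LRRKtide antibody; IC50 is a mean of several tests.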
T1 sequence (Q5S007 970-2527 G2019S): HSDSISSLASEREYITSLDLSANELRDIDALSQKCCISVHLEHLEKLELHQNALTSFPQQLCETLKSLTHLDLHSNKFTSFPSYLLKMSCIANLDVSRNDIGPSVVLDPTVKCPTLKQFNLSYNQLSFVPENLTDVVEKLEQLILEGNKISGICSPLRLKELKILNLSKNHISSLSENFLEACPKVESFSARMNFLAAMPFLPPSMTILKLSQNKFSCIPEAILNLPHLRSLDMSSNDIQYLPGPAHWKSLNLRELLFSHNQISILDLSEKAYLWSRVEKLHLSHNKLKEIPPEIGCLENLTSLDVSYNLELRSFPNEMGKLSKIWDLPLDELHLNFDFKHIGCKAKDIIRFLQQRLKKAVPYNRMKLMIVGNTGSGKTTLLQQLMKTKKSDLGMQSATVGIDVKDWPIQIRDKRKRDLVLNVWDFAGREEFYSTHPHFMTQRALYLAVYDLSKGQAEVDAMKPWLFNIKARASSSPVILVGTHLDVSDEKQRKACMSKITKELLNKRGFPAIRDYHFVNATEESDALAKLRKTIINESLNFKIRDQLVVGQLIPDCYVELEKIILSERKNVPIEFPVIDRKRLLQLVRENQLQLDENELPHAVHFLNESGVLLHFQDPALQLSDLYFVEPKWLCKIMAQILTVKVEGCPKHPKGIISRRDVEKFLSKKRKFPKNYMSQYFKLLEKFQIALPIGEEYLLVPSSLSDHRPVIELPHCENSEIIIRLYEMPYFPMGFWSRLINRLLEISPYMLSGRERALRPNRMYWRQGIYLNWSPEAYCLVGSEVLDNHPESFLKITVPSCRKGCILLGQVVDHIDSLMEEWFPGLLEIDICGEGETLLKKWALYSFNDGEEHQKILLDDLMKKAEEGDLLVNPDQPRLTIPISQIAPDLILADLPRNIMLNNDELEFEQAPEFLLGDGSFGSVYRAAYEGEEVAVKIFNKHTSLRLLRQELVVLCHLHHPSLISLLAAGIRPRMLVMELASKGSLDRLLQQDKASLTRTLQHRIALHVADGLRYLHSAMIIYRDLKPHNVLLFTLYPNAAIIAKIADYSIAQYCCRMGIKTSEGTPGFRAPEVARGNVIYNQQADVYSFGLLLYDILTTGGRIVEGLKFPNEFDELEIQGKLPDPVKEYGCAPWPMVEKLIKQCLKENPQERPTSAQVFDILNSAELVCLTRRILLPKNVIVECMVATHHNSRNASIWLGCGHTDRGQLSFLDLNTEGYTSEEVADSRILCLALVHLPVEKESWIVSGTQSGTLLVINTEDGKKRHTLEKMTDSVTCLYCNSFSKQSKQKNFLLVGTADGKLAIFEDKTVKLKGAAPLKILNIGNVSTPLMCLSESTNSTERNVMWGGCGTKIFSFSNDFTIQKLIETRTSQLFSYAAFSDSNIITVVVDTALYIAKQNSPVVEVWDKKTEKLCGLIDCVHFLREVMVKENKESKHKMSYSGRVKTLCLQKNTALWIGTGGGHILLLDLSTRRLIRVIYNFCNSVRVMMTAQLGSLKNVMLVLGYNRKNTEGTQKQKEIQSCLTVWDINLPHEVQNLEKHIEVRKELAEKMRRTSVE
(In general: Time-resolved FRET reads energy transfer from a long-lived donor to a nearby acceptor.)

For assay [2], the target named is T1, LRRK2(G2019S mutation, GST-LRRK2(amino acids 970-2527)). The experiment in a line: LRRK2 5 mM ATP LanthaScreen Assay. How it is done:
The data presented for the 5 mM and Km ATP LanthaScreen™ Assay represents mean IC50 values based on several test results and may have reasonable. deviations depending on the specific conditions and reagents used. Reagents for the LRRK2 5 mM and Km ATP LanthaScreen™ Assay were purchased from Life Technologies Corporation.
LRRK2 5 mM ATP LanthaScreen™ Assay
a) 400 nl of a 1:2.15 serial dilution of test compound(98 μM top assay concentration) is spotted via Labcyte Echo to certain wells in a 384 well black, untreated plate. Control wells contain 400 nl of either DMSO or 400 nl of a known inhibitor in DMSO.
b) 10 μl of a 2.5 nM LRRK2(G2019S mutation, GST-LRRK2(amino acids 970-2527)) enzyme solution in 1× assay buffer(50 mM Tris pH 8.5, 10 mM MgCl2, 0.01% Brij-35, 1.0 mM EGTA, 2 mM DTT, 0.05 mM NaVO4) is added to all wells.
c) A 30 minute room temperature incubation is followed by addition of 10 μl of 800 nM fluorescein labeled LRRKtide peptide substrate and 10 mM ATP solution in 1× assay buffer to all wells.
d) After a 35 minute room temperature incubation, 20 μl of TR-FRET Dilution Buffer(Invitrogen PV3756B) containing 4 nM Tb-labeled anti-phospho LRRKtide antibody and 20 mM EDTA is added to all wells.
e) Plates are incubated at room temperature for 1 hour and read on an Envision™ multi-mode plate reader with LanthaScreen™ settings. Results are analysed using Assay Data Analyzer.

Assay [3] concerns the target kinases (Homo sapiens, UniProt P15056, V600E). The experiment in a line: Kinase selectivity using Z'-LYTE or Adapta. Conditions: 1 μM of Example; Z-LYTE platform.
Assay [4] has as its system kinases. The experiment in a line: Kinase selectivity using Z'-LYTE or Adapta. Conditions: 1 μM of Example; for percent inhibition IRAK1: Adapta platform; for percent inhibition AURKB (Aurora B) / percent inhibition CDK1/cyclin B / percent inhibition CHEK2 (CHK2) / percent inhibition CLK2 / percent inhibition DYRK1A / percent inhibition JAK3 / percent inhibition MAPK1 (ERK2) / percent inhibition MAPK8 (JNK1): Z-LYTE platform.

[5] abbreviates: Km ATP (184 μM ATP solution), G2019S LRRK2, mean IC50.

Sequence of kinases (Homo sapiens, UniProt P15056, V600E) (P15056 2-766 V600E limits assumed): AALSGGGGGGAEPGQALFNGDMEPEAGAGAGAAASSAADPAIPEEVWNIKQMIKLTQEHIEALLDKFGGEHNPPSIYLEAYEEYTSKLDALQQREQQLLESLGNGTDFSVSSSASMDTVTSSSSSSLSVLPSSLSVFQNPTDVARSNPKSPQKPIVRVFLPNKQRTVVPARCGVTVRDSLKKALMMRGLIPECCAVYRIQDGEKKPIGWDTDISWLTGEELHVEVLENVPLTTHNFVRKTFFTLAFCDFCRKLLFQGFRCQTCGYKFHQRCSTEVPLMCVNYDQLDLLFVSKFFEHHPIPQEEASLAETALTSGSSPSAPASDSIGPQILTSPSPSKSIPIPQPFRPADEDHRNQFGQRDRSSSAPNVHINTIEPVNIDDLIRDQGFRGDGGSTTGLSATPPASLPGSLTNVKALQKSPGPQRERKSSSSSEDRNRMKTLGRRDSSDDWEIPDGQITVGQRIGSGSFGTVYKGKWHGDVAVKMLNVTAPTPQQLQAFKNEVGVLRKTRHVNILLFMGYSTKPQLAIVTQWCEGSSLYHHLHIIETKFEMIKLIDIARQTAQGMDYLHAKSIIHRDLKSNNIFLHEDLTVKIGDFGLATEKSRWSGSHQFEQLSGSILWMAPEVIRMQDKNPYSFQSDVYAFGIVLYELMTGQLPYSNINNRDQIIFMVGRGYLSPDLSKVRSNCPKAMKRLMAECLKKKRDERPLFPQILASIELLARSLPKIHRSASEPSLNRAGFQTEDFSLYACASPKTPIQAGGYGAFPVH

For orientation: pIC50 means −log10 of the IC50, conventionally taken in molar units. The low end stands for a high IC50, the high end for a low IC50. As to `CC(C)Oc1ccc2[nH]nc(-c3cc(N4CCN(CCF)CC4)ncn3)c2c1` [Example D15], the pIC50 in assay [1] (setting [5]) is 8.26. Further, the pIC50 in assay [2] was 7.47. For the same compound, in assay [3], the “percent inhibition BRAF V599E” value stood at 28%. In addition, in assay [4], the “percent inhibition IRAK1” value is listed as −3%, the “percent inhibition AURKB (Aurora B)” value is 18%, the “percent inhibition CDK1/cyclin B” value came out at 10% and the “percent inhibition CHEK2 (CHK2)” value was determined as 13%. In addition, in assay [4], the “percent inhibition CLK2” value came to 70%, the “percent inhibition DYRK1A” value is listed as 30%, the “percent inhibition JAK3” value came out at 9% and the “percent inhibition MAPK1 (ERK2)” value amounted to 16%. The “percent inhibition MAPK8 (JNK1)” value in assay [4] amounted to 56%.
`CC(C)Oc1ccc2[nH]nc(-c3cc(N4CCOCC4)ncn3)c2c1` [Example D6]: the pIC50 in assay [1] (setting [5]) is 8.23. The compound also gave a negative-log IC50 (pIC50) in assay [2] of 7.02. In assay [3], the “percent inhibition BRAF V599E” value is given as 2%. In addition, in assay [4], the “percent inhibition IRAK1” value is −1%, the “percent inhibition AURKB (Aurora B)” value is 16%, the “percent inhibition CDK1/cyclin B” value worked out at 7% and the “percent inhibition CHEK2 (CHK2)” value is listed as 7%. Moreover, in assay [4], the “percent inhibition CLK2” value stood at 66%, the “percent inhibition DYRK1A” value was 12%, the “percent inhibition JAK3” value is given as 5% and the “percent inhibition MAPK1 (ERK2)” value is recorded as 7%. Besides, in assay [4], the “percent inhibition MAPK8 (JNK1)” value was 28%.
For the compound `CCN1CCN(c2cc(-c3n[nH]c4ccc(-c5cnn(C)c5)cc34)ncn2)CC1` [Example A8], the negative-log IC50 (pIC50) is 9.12 in assay [1] (setting [5]) and 7.85 in assay [2].
In turn, `CC(C)Oc1cc2c(-c3cc(N4CCN(C)CC4)ncn3)n[nH]c2cc1F` [Example D25] gave a pIC50 in assay [1] (setting [5]) of 8.36. For the same compound, in assay [3], the “percent inhibition BRAF V599E” value is reported as 7%. Further, in assay [4], the “percent inhibition IRAK1” value is listed as 15%, the “percent inhibition AURKB (Aurora B)” value amounted to 14%, the “percent inhibition CDK1/cyclin B” value is 17% and the “percent inhibition CHEK2 (CHK2)” value is 8%. Moreover, in assay [4], the “percent inhibition CLK2” value came to 89%, the “percent inhibition DYRK1A” value turned out to be 39%, the “percent inhibition JAK3” value was found to be 8% and the “percent inhibition MAPK1 (ERK2)” value was determined as 0%. For the same compound, in assay [4], the “percent inhibition MAPK8 (JNK1)” value is listed as 56%.
With `Cn1cc(-c2ccc3[nH]nc(-c4cc(N5CCN(S(C)(=O)=O)CC5)ncn4)c3c2)cn1` [Example A3], the figures for the pIC50 in assay [1] (setting [5]) and in assay [2] were 8.48 and 7.44, respectively.
`Cn1cc(-c2ccc3[nH]nc(-c4cc(N5CCOCC5)ncn4)c3c2)cn1` [Example A1]: the results for the negative-log IC50 (pIC50) in assay [1] (setting [5]) and in assay [2] were 8.64 and 7.39, respectively.
In the case of `CC(C)Oc1ccc2[nH]nc(-c3cc(N4CCC5(CCNC5=O)CC4)ncn3)c2c1` [Example D32], the pIC50 in assay [1] (setting [5]) is 8.64; in assay [2], 7.52.
Take `CC(C)Oc1cc2c(-c3cc(N4CCN(S(C)(=O)=O)CC4)ncn3)n[nH]c2cc1F` [Example D24]: the pIC50 is 8.51 in assay [1] (setting [5]) and 7.55 in assay [2].
As to `CC(C)Oc1cc2c(-c3cc(N4C[C@@H](C)O[C@@H](C)C4)ncn3)n[nH]c2cc1F` [Example D41], the pIC50 is 8.54 in assay [1] (setting [5]) and 7.66 in assay [2].
Regarding `COCCN1CCN(c2cc(-c3n[nH]c4ccc(OC(C)C)cc34)ncn2)CC1` [Example K10], the pIC50 in assay [1] (setting [5]) was 8.31; in assay [2] it was 7.62.
With `COC[C@H](C)Oc1ccc2[nH]nc(-c3cc(N4CCOCC4)ncn3)c2c1` [Example H4], the results for the pIC50 in assay [1] (setting [5]) and in assay [2] were 8.59 and 7.48, respectively.
With `CC(C)Oc1ccc2[nH]nc(-c3cc(N4CCO[C@H](C)C4)ncn3)c2c1` [Example D2], the negative logarithm of the IC50 (pIC50) in assay [1] (setting [5]) is 8.29. Moreover, the negative-log IC50 (pIC50) in assay [2] is 7.17. Moreover, in assay [3], the “percent inhibition BRAF V599E” value is −11%. Further, in assay [4], the “percent inhibition IRAK1” value is recorded as −7%, the “percent inhibition AURKB (Aurora B)” value is 9%, the “percent inhibition CDK1/cyclin B” value was 7% and the “percent inhibition CHEK2 (CHK2)” value is 1%. In addition, in assay [4], the “percent inhibition CLK2” value was determined as 79%, the “percent inhibition DYRK1A” value stood at 13%, the “percent inhibition JAK3” value worked out at 8% and the “percent inhibition MAPK1 (ERK2)” value worked out at 5%. Further, the “percent inhibition MAPK8 (JNK1)” value in assay [4] is on record as 28%.
In assay [1] (setting [5]), `CO[C@@H]1CN(c2cc(-c3n[nH]c4cc(F)c(-c5cnn(C)c5)cc34)ncn2)C[C@H]1O` [Example L20] gave a pIC50 of 7.44.
The compound `C[C@@H]1CN(c2cc(-c3n[nH]c4ccc(-c5cnc(N6CCCC6)s5)cc34)ncn2)C[C@H](C)O1` [Example Q13] had a negative logarithm of the IC50 (pIC50) in assay [1] (Examples Q1-Q20) of 8.12.
As for `CC(C)Oc1ccc2[nH]nc(-c3cc(N4C[C@H](O)[C@@H](O)[C@@H]4C)ncn3)c2c1` [Example D42], in assay [1] (setting [5]), the pIC50 was 7.74.
In assay [1] (setting [5]), `Cn1cc(-c2ccc3[nH]nc(-c4cc(N5CCC(n6cccn6)C5)ncn4)c3c2)cn1` (centres unmarked) [Example M22] had a pIC50 of 8.44.
Compound `c1nc(-c2n[nH]c3ccc(-c4cn[nH]c4)cc23)cc(N2CCOCC2)n1` [Example U16] showed a pIC50 in assay [1] (Table U) of 8.64.

The record behind these values is patent publication US9416126B2, “Compounds inhibiting leucine-rich repeat kinase enzyme activity” (Merck Sharp & Dohme Corp., priority 2013, dated 2016).
